# Experimental data from patent publication US8940898B2, “Piperidinyl alkyne orexin receptor antagonists” (Merck Sharp & Dohme Corp., priority 2011, dated 2015).
# Columns and labels:
# [1] = target: T1, hOX1 (orexin-1 receptor) (Homo sapiens, UniProt O43613); assay: radioligand binding assay, OX1 receptor (hOX1 Bind hKi); settings: membranes from CHO cells expressing the OX1 receptor
# T1 construct: expressed in transfected cells; host or cells: CHO cells (membranes)
# T1 sequence (O43613 1-425): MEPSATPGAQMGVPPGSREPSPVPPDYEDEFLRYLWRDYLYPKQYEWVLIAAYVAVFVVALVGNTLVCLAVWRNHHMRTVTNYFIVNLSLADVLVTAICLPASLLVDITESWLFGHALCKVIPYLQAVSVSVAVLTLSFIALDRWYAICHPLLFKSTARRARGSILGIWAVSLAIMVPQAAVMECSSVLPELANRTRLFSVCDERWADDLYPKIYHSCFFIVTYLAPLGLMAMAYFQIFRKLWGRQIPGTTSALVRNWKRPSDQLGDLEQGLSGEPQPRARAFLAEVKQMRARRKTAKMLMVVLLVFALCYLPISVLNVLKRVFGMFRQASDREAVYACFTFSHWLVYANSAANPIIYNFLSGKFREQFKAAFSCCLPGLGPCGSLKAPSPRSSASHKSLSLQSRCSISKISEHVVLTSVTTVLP
# [2] = target: T2, human orexin-2 receptor (Homo sapiens, UniProt O43614); assay: radioligand binding assay, OX2 receptor (hOX2 Bind hKi); settings: membranes from CHO cells expressing the OX2 receptor
# T2 construct: expressed in transfected cells; host or cells: CHO cells (membranes)
# T2 sequence (O43614 1-444): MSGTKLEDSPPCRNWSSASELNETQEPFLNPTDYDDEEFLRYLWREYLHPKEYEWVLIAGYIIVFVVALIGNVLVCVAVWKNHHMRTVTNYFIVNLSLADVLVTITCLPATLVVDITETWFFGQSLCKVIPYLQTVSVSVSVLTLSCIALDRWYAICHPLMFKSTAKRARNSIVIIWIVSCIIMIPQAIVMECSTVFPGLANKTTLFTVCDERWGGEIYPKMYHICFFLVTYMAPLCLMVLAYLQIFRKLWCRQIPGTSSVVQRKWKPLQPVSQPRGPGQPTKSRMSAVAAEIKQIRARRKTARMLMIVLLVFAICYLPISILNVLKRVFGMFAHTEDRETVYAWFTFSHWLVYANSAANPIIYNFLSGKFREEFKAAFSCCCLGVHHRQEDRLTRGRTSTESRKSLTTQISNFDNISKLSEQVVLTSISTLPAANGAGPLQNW
# Description: The utility of the compounds in accordance with the present invention as orexin receptor OX1R and/or OX2R antagonists may be readily determined without undue experimentation by methodology well known in the art, including the “FLIPR Ca^2+ Flux Assay” (Okumura et al., Biochem. Biophys. Res. Comm. 280:976-981, 2001). In a typical experiment the OX1 and OX2 receptor antagonistic activity of the compounds of the present invention was determined in accordance with the following experimental method. For intracellular calcium measurements, Chinese hamster ovary (CHO) cells expressing the rat orexin-1 receptor or the human orexin-2 receptor, are grown in Iscove's modified DMEM containing 2 mM L-glutamine, […], 1% hypoxanthine-thymidine supplement, 100 U/ml penicillin, 100 μg/ml streptomycin and 10% heat-inactivated fetal calf serum (FCS). The cells are seeded at 20,000 cells/well into Becton-Dickinson black 384-well clear bottom sterile plates coated with poly-D-lysine. All reagents were from GIBCO-Invitrogen Corp. The seeded plates are incubated overnight at 37° C. and 5% CO2. Ala-6,12 human orexin-A as the agonist is prepared as a 1 mM stock solution in 1% bovine serum albumin (BSA) and diluted in assay buffer (HBSS containing 20 mM HEPES, 0.1% BSA and 2.5 mM probenecid, pH7.4) for use in the assay at a final concentration of 70 pM. Test compounds are prepared as 10 mM stock solution in DMSO, then diluted in 384-well plates, first in DMSO, then assay buffer. On the day of the assay, cells are washed 3 times with 100 μl assay buffer and then incubated for 60 min (37° C., 5% CO2) in 60 μl assay buffer containing 1 μM Fluo-4AM ester, 0.02% pluronic acid, and 1% BSA. The dye loading solution is then aspirated and cells are washed 3 times with 100 μl assay buffer. 30 μl of that same buffer is left in each well. Within the Fluorescent Imaging Plate Reader (FLIPR, Molecular Devices), test compounds are added to the plate in a volume of 25 μl, incubated for 5 min and finally 25 μl of agonist is added. Fluorescence is measured for each well at 1 second intervals for 5 minutes and the height of each fluorescence peak is compared to the height of the fluorescence peak induced by […] Ala-6,12 orexin-A with buffer in place of antagonist. For each antagonist, IC50 value (the concentration of compound needed to inhibit 50% of the agonist response) is determined. Alternatively, compound potency can be assessed by a radioligand binding assay (described in Bergman et. al. Bioorg. Med. Chem. Lett. 2008, 18, 1425-1430) in which the inhibition constant (Ki) is determined in membranes prepared from CHO cells expressing either the OX1 or OX2 receptor. The intrinsic orexin receptor antagonist activity of a compound which may be used in the present invention may be determined by these assays. The following tables show representative data for the compounds of the Examples as orexin receptor antagonists as determined by the foregoing assays wherein the hOX2 Ki is a measure of the ability of the test compound to inhibit the action of the human orexin-2 receptor and the hOX1R is a measure of the ability of the test compound to inhibit the action of the rat orexin-1 receptor.
SMILES,Ki [1] [nM],Ki [2] [nM]
"C[C@@H]1CC[C@@H](C#Cc2cnccc2O)CN1C(=O)c1ccccc1-n1nccn1 [Example 5, 3-{[(3S,6R)-6-methyl-1-{[2-(2H-1,2,3-triazol-2-yl)phenyl]carbonyl}piperidin-3-yl]ethynyl}pyridin-4-ol]",866,7.5
"C[C@@H]1CC[C@@H](C#Cc2ccc(CO)nc2)CN1C(=O)c1ccccc1-n1nccn1 [Example 7, (5-{[(3S,6R)-6-methyl-1-{[2-(2H-1,2,3-triazol-2-yl)phenyl]carbonyl}piperidin-3-yl]ethynyl}pyridin-2-yl)methanol]",339,~150
"C[C@@H]1CC[C@@H](C#Cc2ccc(CO)cn2)CN1C(=O)c1ccccc1-n1nccn1 [Example 8, (6-{[(3S,6R)-6-methyl-1-{[2-(2H-1,2,3-triazol-2-yl)phenyl]carbonyl}piperidin-3-yl]ethynyl}pyridin-3-yl)methanol]",211,130
"Cc1ccc(-n2nccn2)c(C(=O)N2CCCCC2C#Cc2ccccc2)c1 (centres unmarked) [Example 14, [5-Methyl-2-(2H-1,2,3-triazol-2-yl)phenyl][2-(phenylethynyl)piperidin-1-yl]methanone]",357,441
"Cc1ccc(-n2nccn2)c(C(=O)N2CCCCC2C#Cc2ccc(F)cn2)c1 (centres unmarked) [Example 15, 5-fluoro-2-[(1-{[5-methyl-2-(2H-1,2,3-triazol-2-yl)phenyl]carbonyl}piperidin-2-yl)ethynyl]pyridine]",> 2540,1000
"Cc1ccc(-n2nccn2)c(C(=O)N2CCCCC2C#Cc2ccc(F)cc2)c1 (centres unmarked) [Example 16, 2-[(4-fluorophenyl)ethynyl]-1-{[5-methyl-2-(2H-1,2,3-triazol-2-yl)phenyl]carbonyl}piperidine]",248,160
"Cc1ccc(-n2nccn2)c(C(=O)N2CCCCC2C#Cc2ccc3ccccc3n2)c1 (centres unmarked) [Example 17, 2-[(1-{[5-methyl-2-(2H-1,2,3-triazol-2-yl)phenyl]carbonyl)piperidin-2-yl)ethynyl]quinoline]",332,> 4460
"Cc1ccc(-n2nccn2)c(C(=O)N2CCCCC2C#Cc2cnc3ccccc3c2)c1 (centres unmarked) [Example 18, 3-[(1-{[5-methyl-2-(2H-1,2,3-triazol-2-yl)phenyl]carbonyl}piperidin-2-yl)ethynyl]quinoline]",> 476,> 4460
"Cc1ccc(-n2nccn2)c(C(=O)N2CCCCC2C#Cc2ccc3ccccc3c2)c1 (centres unmarked) [Example 19, 1-{[5-methyl-2-(2H-1,2,3-triazol-2-yl)phenyl]carbonyl}-2-(naphthalen-2-ylethynyl)piperidine]",> 476,2830
"Cc1nc(C(=O)N2CCCCC2C#Cc2ccccc2)c(-c2ccccc2)s1 (centres unmarked) [Example 20, (2-Methyl-5-phenyl-1,3-thiazol-4-yl) [2-(phenylethynyl)piperidin-1-yl]methanone]",257,> 1170
"Cc1nc(C(=O)N2CCCCC2C#Cc2ccc3ccccc3c2)c(-c2ccccc2)s1 (centres unmarked) [Example 21, 1-[(2-methyl-5-phenyl-1,3-thiazol-4-yl)carbonyl]-2-(naphthalen-2-ylethynyl)piperidine]",> 1600,> 754
"Cc1nc(C(=O)N2CCCCC2C#Cc2ccc(F)cn2)c(-c2ccccc2)s1 (centres unmarked) [Example 22, 5-fluoro-2-({1-[(2-methyl-5-phenyl-1,3-thiazol-4-yl)carbonyl]piperidin-2-yl}ethynyl)pyridine]",> 2710,> 2300
"Cc1nc(C(=O)N2CCCCC2C#Cc2ccc(F)cc2)c(-c2ccccc2)s1 (centres unmarked) [Example 23, 2-[(4-fluorophenyl)ethynyl]-1-[(2-methyl-5-phenyl-1,3-thiazol-4-yl)carbonyl]piperidine]",186,721

# These reach a lower Ki [1]. Values come first.
Ki [1] [nM],Ki [2] [nM],SMILES
108,32,"C[C@@H]1CC[C@@H](C#Cc2cncc(CO)c2)CN1C(=O)c1ccccc1-n1nccn1 [Example 11, (5-{[(3S,6R)-6-methyl-1-{[2-(2H-1,2,3-triazol-2-yl)phenyl]carbonyl}piperidin-3-yl]ethynyl}pyridin-3-yl)methanol]"
107,41,"C[C@@H]1CC[C@@H](C#Cc2ccncc2)CN1C(=O)c1ccccc1-n1nccn1 [Example 2, 4-{[(3S,6R)-6-methyl-1-{[2-(2H-1,2,3-triazol-2-yl)phenyl]carbonyl}piperidin-3-yl]ethynyl}pyridine]"
76,42,"C[C@@H]1CC[C@@H](C#Cc2cc(CO)ccn2)CN1C(=O)c1ccccc1-n1nccn1 [Example 10, (2-{[(3S,6R)-6-methyl-1-{[2-(2H-1,2,3-triazol-2-yl)phenyl]carbonyl}piperidin-3-yl]ethynyl}pyridin-4-yl)methanol]"
75,25,"C[C@@H]1CC[C@@H](C#Cc2ccnc(CO)c2)CN1C(=O)c1ccccc1-n1nccn1 [Example 12, (4-{[(3S,6R)-6-methyl-1-{[2-(2H-1,2,3-triazol-2-yl)phenyl]carbonyl}piperidin-3-yl]ethynyl}pyridin-2-yl)methanol]"
27,11,"C[C@@H]1CCC(C#Cc2ccccn2)CN1C(=O)c1ccccc1-n1nccn1 (stereo in doubt) [Example 1, [(2R,5R)-2-Methyl-5-(pyridin-2-ylethynyl)piperidin-1-yl][2-(2H-1,2,3-triazol-2-yl)phenyl]methanone]"
26,7,"C[C@@H]1CC[C@@H](C#Cc2cccnc2)CN1C(=O)c1ccccc1-n1nccn1 [Example 3, 3-{[(3S,6R)-6-methyl-1-{[2-(2H-1,2,3-triazol-2-yl)phenyl]carbonyl}piperidin-3-yl]ethynyl}pyridine]"
24,24,"C[C@@H]1CC[C@@H](C#Cc2cccnc2O)CN1C(=O)c1ccccc1-n1nccn1 [Example 4, 3-{[(3S,6R)-6-methyl-1-{[2-(2H-1,2,3-triazol-2-yl)phenyl]carbonyl}piperidin-3-yl]ethynyl}pyridin-2-ol]"
18,5.6,"C[C@@H]1CC[C@@H](C#Cc2cccc(CO)n2)CN1C(=O)c1ccccc1-n1nccn1 [Example 9, (6-{[(3S,6R)-6-methyl-1-{[2-(2H-1,2,3-triazol-2-yl)phenyl]carbonyl}piperidin-3-yl]ethynyl}pyridin-2-yl)methanol]"
0.56,0.53,"C[C@@H]1CC[C@@H](C#Cc2ccccc2CO)CN1C(=O)c1ccccc1-n1nccn1 [Example 6, (2-{[(3S,6R)-6-methyl-1-{[2-(2H-1,2,3-triazol-2-yl)phenyl]carbonyl}piperidin-3-yl]ethynyl}phenyl)methanol]"
